Reference: US11299518B2, “Fusion respiratory syncytial virus inhibitors and use thereof” (priority 2016, dated 2022)
Where two headings read alike, the source gives them in different places. Bridge positions count the residues as written; N and C are the ends. Square brackets hold non-standard residues; d marks the D form. Peptide text beside a SMILES is read from it. R8 = C=CCCCCCC[C@@](C)(N)C(=O)O; R5 = C=CCCC[C@@](C)(N)C(=O)O; S5 = C=CCCC[C@](C)(N)C(=O)O

Assays:
[1] = CD spectroscopy, percentage of helicity; format: physicochemical; conditions: CD at 222 nm, 10 mM phosphate buffer pH 7.5, 50 μM peptide, 25° C.
Method: The secondary structure of the peptides was then characterized by circular dichroism (DC) as described below.
The circular dichroism spectra were acquired on a Jasco J-810 and on a Chirascan spectropolarimeter. The samples were prepared in 10 mM phosphate buffer, pH 7.5, at a peptide concentration of 50 μM. Data were recorded at 25° C. by stepscan from 180 nm to 260 nm in a 0.1 cm pathlength quartz cell using 0.2 nm wavelength increments, 1 nm bandwidth and a response time of 0.5 sec. Each spectrum was an average of three measurements and was subtracted from buffer baseline. The data were converted to per residue molar ellipticity units [θ] (deg·cm2·dmol−1·residue−1) and smoothed using the Igor software. The percentage of helicity was calculated as it follows:
[formula] whereby CD222=molar ellipticity at 222 nm in [mdeg], N=number of amino acids in the peptide and C=peptide molar concentration [mol/l].

chymotrypsin = target: T1, chymotrypsin (Bos taurus, UniProt P00766); assay: Proteolytic stability assay, chymotrypsin; format: in vitro ADME; conditions: chymotrypsin (isolated protease)
T1 construct: purchased Thermo Fisher Scientific
Method: (§1) The compounds according to the invention are tested for their stability in a proteolytic stability assay as described below which is an important parameter to assess for the development of peptide therapeutics. Peptides of the invention 4bb, 4ca, 4a and their unstapled comparative peptide 4, as well as both SAH-RSVFBD isomers were treated with chymotrypsin and trypsin, and analysed by LC/MS to quantify the reaction products over time.
(§2) In vitro proteolytic degradation was measured via LC-MS using an Agilent Infinity 1280 UHPLC system coupled to an Agilent quadruple-time-of-flight (QTOF) 6530 with an Agilent Jet Stream electrospray ionisation (AJS ESI) source (all Agilent Technologies, Waldbronn, Germany). 5 μl of digested sample were injected onto a C18 column (Zorbax Eclipse Plus RRHD, 1.8 μm, 2.1*100 mm, Agilent Technologies, Waldbronn, Germany) equilibrated with solvent A and eluted with a flow rate of 0.4 ml/min over a 5-95% gradient of solvent B in 5 minutes, followed by 1.5 minutes at 95% and 0.5 minutes post-time where solvent A was 95% water, 5% acetonitrile with 0.2% formic acid and solvent B was 5% water, 95% acetonitrile with 0.2% formic acid. The AJS ESI source was operated with a capillary voltage of 4000V and a nozzle voltage of 600V with a drying gas temperature of 325° C. and flow rate of 10 l/min, nebulising gas pressure of 20 psi, and a sheath gas temperature of 300° C. and flow rate of 11l/min. Mass spectra were acquired in the positive ion mode from 100-3200 m/z at a rate of 1 scan per second in extended dynamic range (2 GHz) mode. The fragmentor, skimmer and octopole Radio Frequency voltages were set to 200, 60 and 750 V respectively. Data were acquired and analysed with Agilent MassHunter Workstation (version B.05).
(§3) Peptide digestion was performed as it follows: 10 μl of peptide at 0.29 mM in 50/50 acetonitrile/water were dissolved in 990 μl 100 mM Tris-HCl, pH 8.0 with 10 mM CaCl2. Following measurement of the undigested (to) sample, 10 μl of chymotrypsin at 50 μg/ml in 100 mM Tris-HCl, pH 8.0 with 10 mM CaCl2 were added and the sample was vortexed and placed immediately in the autosampler, set to 25° C. Trypsin digestion was performed as with chymotrypsin except that the buffer was in 50 mM Tris-HCl, pH8. Chymotrypsin and trypsin were purchased from Thermo Fisher Scientific.
(§4) The level of intact peptide was quantified by serial injection over time. Integration of the intact peptide compound chromatogram was performed using the Agilent Molecular Feature Extraction (MFE) algorithm. A plot of the intact peptide MFE peak area over time gave an exponential decay curve, from which the half-life was determined using MatLab […].

trypsin = assay: Proteolytic stability assay, trypsin; format: in vitro ADME; conditions: trypsin (isolated protease)
Method: as §1, §2, §3, §4

RSV-mCherry = format: cell-based, HRSV
Method: The inhibitory activity of the peptides of the invention was assessed in HEp-2 cells as described below:
A mCherry-expressing virus recently developed (Rameix-Welti et al., 2014, Nat. Commun., 5:5104) was used to avoid the cumbersome manipulations required with the GFP-expressing virus.
HEp-2 cells were seeded at 5×10^4 cells per well in 96 wells plate the day before the infection. Peptides were 2-fold serially diluted in DMSO (11 dilutions), then further diluted in MEM medium and pre-incubated for 15-20 minutes with 0.2 MOI of RSV-mCherry (Rameix-Welti et al., 2014, supra). Following the washing of Hep-2 cells with MEM without phenol red medium, the cells were incubated with the virus/peptide mixtures for a period of 1 h30-2 h. The cells were washed and further incubated in MEM media containing fetal bovine serum and the same concentration of peptide that was used during the infection step. Plates were incubated 48 h at 37° C. and the mCherry fluorescence was measured using a spectrofluorometer (Tecan infinite M200PRO) with excitation and emission wavelengths of 580 and 620 nm, respectively (expressed in relative fluorescence units RFU). Non-infected HEp-2 cells were used as standards for fluorescence background levels. Each experiment was performed in duplicate and repeated at least twice.

[2] = test system: 5HB, a recombinant 5 helix bundle protein containing 3 HR1 domains covalently attached to 2 HR2 domains; conditions: 50 nM 5HB, 2 nM FITC-T108
Method: The fluorescence polarization assay was performed in 384-well plates using a Spectramax Paradigm (Molecular devices), using an excitation and emission wavelength of 485 nm and 535 nm, respectively. The acquisition time was of 700 ms and the read height was of 1 mm.

rHRSV-Luc = assay: In vivo rHRSV-Luc infection of mice, lung histological analysis; parameters: species or system BALB/c mice; conditions: intranasal peptide, day 7 pi
Method: The efficacy of peptides of the invention is tested in the following model of rHRSV infection.
Female BALB/c mice around 8 weeks of age are purchased. Mice are bred in a pathogen-free animal facility. For infection experiments, mice will be housed in cages inside stainless steel isolation cabinets that are ventilated under negative pressure with high-efficiency particulate air-filtered air. Female BALB/c mice (n=5 per group) are anesthetized by a mixture of ketamine and xylazine (1 and 0.2 mg per mouse, respectively) and infected by intranasal inoculation with 50 μl of PBS containing 6.10^4 p.f.u. of rHRSV-Luc (Luc-encoding virus that enables direct visualization of RSV replication in living mice). Peptides of the invention are administered intranasally to the mice infected or uninfected with RSV-Luc, on day 0, 2 and 4 post-infection. Body weight and temperature is monitored at days 3-10. In vivo imaging is performed each two days on anesthetized mice. At day 8, mice are killed and the safety of the treatment is investigated by a complete toxicopathological evaluation of treated mice (histologic analysis of lungs with sections of each lobe, turbinates, heart, spleen, liver, kidneys).
At day 7 pi, a time corresponding to the end of the infection in mice, the animals were sacrificed and the lungs were collected in order to perform a histological analysis. […]

hRSV = conditions: literature; cited from earlier work
bRSV = conditions: literature; cited from earlier work
circular dichroism = conditions: 10 mM phosphate; pH 7.5; 25 °C; 50 uM
[3] = 100 mM Tris-HCl pH 8.0, 10 mM CaCl2, 25° C., LC-MS, read-out: t1/2 (min) Chymotrypsin
[4] = pH 8, 50 mM Tris-HCl pH8, 25° C., LC-MS, read-out: t1/2 (min) Trypsin

CC[C@H](C)[C@H](NC(=O)[C@H](CCCCN)NC(=O)[C@H](CCC(=O)O)NC(C)=O)C(=O)N[C@@H](CC(N)=O)C(=O)N[C@@H](CCC(N)=O)C(=O)N[C@@H](CO)C(=O)N[C@@H](CC(C)C)C(=O)N[C@@]1(C)CCCC=CCCC[C@@](C)(C(=O)N[C@@H](CO)C(=O)N[C@@H](CC(=O)O)C(=O)N[C@@]2(C)CCCC=CCCC[C@@](C)(C(=O)N[C@H](C(N)=O)C(C)C)NC(=O)[C@H](Cc3c[nH]cn3)NC(=O)[C@H](CC(C)C)NC(=O)[C@H](CC(C)C)NC2=O)NC(=O)[C@H](CCCNC(=N)N)NC(=O)[C@H]([C@@H](C)CC)NC(=O)[C@H](Cc2ccccc2)NC1=O [Peptide 4a, EKINQSL Xaa8 FIR Xaa12 SD Xaa15 LLH Xaa19 V] (Ac-EKINQSL[S5]FIR[S5]SD[S5]LLH[S5]V-NH2; staple 8-12, 15-19)
% helicity [1]: 23.5% | half-life at 2.9 µM (chymotrypsin; [3]): 4480 min | half-life at 2.9 µM (trypsin; [4]): 76 min

CC[C@H](C)[C@@H]1NC(=O)[C@H](Cc2ccccc2)NC(=O)[C@@](C)(NC(=O)[C@H](CC(C)C)NC(=O)[C@H](CO)NC(=O)[C@H](CCC(N)=O)NC(=O)[C@H](CCC(=O)O)NC(C)=O)CCCC=CCCC[C@@](C)(C(=O)N[C@@H](CO)C(=O)N[C@@H](CC(=O)O)C(=O)N[C@@H](CCC(=O)O)C(=O)N[C@@H](CC(C)C)C(=O)N[C@@H](CC(C)C)C(=O)N[C@@H](Cc2c[nH]cn2)C(=O)N[C@@H](CC(N)=O)C(=O)N[C@H](C(N)=O)C(C)C)NC(=O)[C@H](CCCNC(=N)N)NC1=O [Peptide 3a, EQSL X504 FIR X508 SDELLHNV, reference compound] (Ac-EQSL[S5]FIR[S5]SDELLHNV-NH2; staple 5-9)
% helicity [1]: 33.9% | EC50 (RSV-mCherry; HEp-2 cells, 0.2 MOI RSV-mCherry, 48 h): > 25 µM | inhibitory activity in HEp-2 cells (RSV-mCherry; RSV-mCherry): inactive | block of the increase of FP / activity in the biochemical 5HB assay [2]: reasonable activity

CC[C@H](C)[C@@H]1NC(=O)[C@H](Cc2ccccc2)NC(=O)[C@@](C)(NC(=O)[C@H](CC(C)C)NC(=O)[C@H](CO)NC(=O)[C@]2(C)CCCC=CCCC[C@@](C)(NC(=O)[C@H](CCC(=O)O)NC(C)=O)C(=O)N[C@@H]([C@@H](C)CC)C(=O)N[C@@H](CC(N)=O)C(=O)N2)CCCC=CCCC[C@@](C)(C(=O)N[C@@H](CO)C(=O)N[C@@H](CC(=O)O)C(=O)N[C@@H](CCC(=O)O)C(=O)N[C@@H](CC(C)C)C(=O)N[C@@H](CC(C)C)C(=O)N[C@@H](Cc2c[nH]cn2)C(=O)N[C@@H](CC(N)=O)C(=O)N[C@H](C(N)=O)C(C)C)NC(=O)[C@H](CCCNC(=N)N)NC1=O [Peptide 4ca] (Ac-E[R5]IN[S5]SL[S5]FIR[S5]SDELLHNV-NH2; staple 2-5, 8-12)
% helicity [1]: >100% | half-life at 2.9 µM (chymotrypsin; pH 8, b240, read-out: half-life against chymotrypsin (converted)): 10800 min | half-life at 2.9 µM (trypsin; pH 8, b240, read-out: half-life against trypsin (converted)): 2280 min | histological changes in the lung parenchyma, mock versus peptide inoculated animals (toxicity) (rHRSV-Luc): No histological changes were noticed | interstitial pneumonia after infection by RSV, lung histology (rHRSV-Luc): no interstitial pneumonia was observed

Cc1ccc(CCCO)c(NCc2ccc3nc(NCCCN4CCOCC4)n(Cc4nc(C)ccc4O)c3c2)c1 [TMC-353121]
activity against hRSV (hRSV): active | activity against bRSV (bRSV): active

O=c1n(Cc2nc3ccccc3n2CCCCO)c2cnccc2n1C1CC1 [BMS-433771]
activity against hRSV (hRSV): active | activity against bRSV (bRSV): active

CC[C@H](C)[C@H](NC(=O)[C@H](CCCCN)NC(=O)[C@H](CCC(=O)O)NC(C)=O)C(=O)N[C@@H](CC(N)=O)C(=O)N[C@@H](CCC(N)=O)C(=O)N[C@@H](CO)C(=O)N[C@@H](CC(C)C)C(=O)N[C@]1(C)CCCCCCC=CCCC[C@@](C)(C(=O)N[C@@H](CC(C)C)C(=O)N[C@@H](CC(C)C)C(=O)N[C@@H](Cc2c[nH]cn2)C(=O)N[C@@H](CC(N)=O)C(=O)N[C@H](C(N)=O)C(C)C)NC(=O)[C@H](CC(=O)O)NC(=O)[C@H](CO)NC(=O)[C@H](CCCCN)NC(=O)[C@H](CCCNC(=N)N)NC(=O)[C@H]([C@@H](C)CC)NC(=O)[C@H](Cc2ccccc2)NC1=O [Peptide 4e, EKINQSL 8504 FIRKSD X511 LLHNV, reference compound] (Ac-EKINQSL[R8]FIRKSD[S5]LLHNV-NH2; staple 8-15)
helicity (circular dichroism): 23.3% | % helicity [1]: 23.3% | block of the increase of FP / activity in the biochemical 5HB assay [2]: reasonable activity

CC[C@H](C)[C@H](NC(=O)[C@H](CCCCN)NC(=O)[C@H](CCC(=O)O)NC(C)=O)C(=O)N[C@@]1(C)CCCC=CCCC[C@@](C)(C(=O)N[C@@H](Cc2ccccc2)C(=O)N[C@H](C(=O)N[C@@]2(C)CCCC=CCCC[C@@](C)(C(=O)N[C@@H](CC(C)C)C(=O)N[C@@H](CC(C)C)C(=O)N[C@@H](Cc3c[nH]cn3)C(=O)N[C@@H](CC(N)=O)C(=O)N[C@H](C(N)=O)C(C)C)NC(=O)[C@H](CC(=O)O)NC(=O)[C@H](CO)NC(=O)[C@H](CCCCN)NC2=O)[C@@H](C)CC)NC(=O)[C@H](CC(C)C)NC(=O)[C@H](CO)NC(=O)[C@H](CCC(N)=O)NC1=O [Peptide 4bb, EKI Xaa4 QSL Xaa8 FI Xaa11 KSD Xaa15 LLHNV] (Ac-EKI[S5]QSL[S5]FI[S5]KSD[S5]LLHNV-NH2; staple 4-8, 11-15)
% helicity [1]: 52.9% | half-life at 2.9 µM (chymotrypsin; [3]): 3010 min | half-life at 2.9 µM (trypsin; [4]): 20 min
